# Tests used:
# RDM4 line = assay: Proliferation test (UptiBlue) on RDM4 line; format: cell-based, mouse; settings: 72 hours
# Procedure: (§1) The products are tested on different cell lines. The cells used are RDM4 from a murine T lymphoma and a MOLT-4 line originating from an acute lymphoblastic leukemia. These cancer lines both express the p53 protein, unlike the HL-60 cells from a human promyelocytary leukemia where, following deletion of its gene, p53 is absent.
# (§2) All of these cells are cultivated in RPMI 1640-Glutamax, supplemented by 10% calf foetal serum heat inactivated at 56° C. for 30 minutes, 1 mM sodium pyruvate, 1 mM non-essential amino acids and 50 μg/mL gentamycine (Life Technologies, Cergy Pontoise, France). The cultures are kept in an incubator at 37° C. with a moisture saturated atmosphere, with 5% CO2.
# (§3) This test uses the UptiBlue reagent (Interchim, Montluçon, France), metabolised by the living cells. The cells are incubated on plates with 96 wells with 10^4 cells/well (200 μL) with the product and cultivated for 72 hours. Then, 20 μL UptiBlue are added to each well. After 3 hours incubation, the fluorescence of the samples contained in the plates is measured at 590 nm (excitation at 560 nm), using a Fluorolite 1000 microplate reader (Dynex technologies, Issy-Les-Moulineaux, France).
# The potential anti-cancers are first of all selected on the RDM4 line. The effect of the different organo-ruthenium compounds upon the cell viability is firstly determined by a proliferation test as a function of the product concentration. The activity of the compounds derived from Ru is compared to that of cisplatinum. The exposure of the RDM4 cells to these derivatives is translated by a dose-dependent reduction in their proliferation. Therefore, the effect is dependent upon the organic complex which surrounds the Ru nucleus. The inhibition concentration of the growth of 50% of the cells (IC50) is determined for each of the products. […] The ruthenium derivatives showing an excessive IC50 (>50 μM) were eliminated from the biological study.
# NH32 = assay: Proliferation test (UptiBlue) on NH32; format: cell-based, human; settings: 72 hours, unit inferred
# Procedure: The influence of the p53 protein upon the effects induced by the products was determined by using the human lymphoblastoid line TK6 (p53 wild-type) and its NH32 variant of which the p53 gene was totally inactivated by double homologous recombination (Chuang et al, 1999). The TK6 cells originate from the American Tissue Culture Collection (ATGC, Manassas, Va., USA). The NH32 cells were supplied by H. L. Liber (Chuang et al, 1999).
# as §2
# as §3, with “France). […]” for “France).”
# A172 glioblastoma cells = assay: Nucleus morphology and caspase 3 activation in A172 cells; format: cell-based, human; settings: for nuclear condensation and fragmentation: 48 hrs treatment
# Description: FIG. 2: A—The A172 cells were cultivated on glass slides. […] The cells were then fixed in 4% paraformaldehyde, permeabilised with 0.1% NP40 and marked with Hoechst dye (blue) and the anti-p20 antibody (active fragment of caspase 3, in red). The cells were then observed under the fluorescence microscope. B—Graphic representation of the number of cells with an apoptotic, fragmented or condensed nucleus. The bars are an average of two slides from one experiment representative of 3 carried out. C—In parallel, proteic extracts were prepared from cells treated with various drugs (cisplatinum 15 μM; CDR225 μM; CDR615 μM; CDR915 μM) and following denaturation the extracts were deposited on a !0% SDS-Page gel. After migration, the proteins were transferred onto nitrocellulose (Biorad, 0.2 μm) and the p20 fragment of the caspase 3 was detected by Western blot with an anti-p20 antibody (1/1000, R&D System).
# (§4) The first step towards characterising the anticancerous effects of the compounds derived from ruthenium consists of testing their activity on tumoral lines kept in culture and comparing these effects on lines which have different characteristics as regards resistance to the anticancer treatments. Two lines of human glioblastomas (A172, HS683) and two lines of neuroblastomas (N2A and SH5Y) were used in order to test the cytostatic effects of the compounds according to the invention. Cisplatinum was chosen as the cytotoxic comparison agent. In a first approach, an MTT test was used to measure the activity of a mitochondrial enzyme, and this gives an estimate of the number of cells. Then, the cytotoxic effects of the compounds according to the invention were characterised in greater detail by analysing the morphology of the nucleus and the activation of caspase 3—two markers of cell apoptosis.
# MOLT-4 = assay: Proliferation test (UptiBlue) on MOLT-4; format: cell-based, human; settings: 72 hours, UptiBlue; unit inferred; read-out: IC50 (Molt-4)
# Procedure: as §1, §2
# as §3, with “France). […]” for “France).”
# RDM4 [1] = assay: DNA fragmentation by marking with propidium iodure on RDM4; format: cell-based, mouse
# Description: A second specific marking of apoptosis is the fragmentation of DNA between the nucleosomes. The fragmented DNA is located in the apoptotic bodies in the terminal phase of apoptosis. This DNA is hypodiploid and so less in quantity than that present in normal cells. It can be quantified by flux cytometry after permeabilisation of the cell membranes and marking with PI. The quantity of DNA in a normal cell is 2n in the G0/G1 phase and 4n in the G2 phase. Therefore, the sub-G0 DNA in a quantity of less than 2n has a weaker fluorescence intensity.
# This phenomenon tends to diminish after 48 hrs of treatment. On the other hand, when the cells are treated with 45 μM, the formation of hypodiploid particles, visualised by the sub-G0 DNA content, is less than 10% at 24 hrs and exceeds 50% at 48 hrs such as to reach 60% at 72 hrs. […] The quantity of hypodiploid particles in the control cells remains less than 4% over this same period.
# WTK1 = assay: Proliferation test (UptiBlue) on WTK1; format: cell-based, human; settings: 72 hours, unit inferred
# Procedure: as §2, §3
# (§5) Compound 9 on other cell lines gives the following IC50: • 9 (NH32):3; 9 (Molt-4):3.8; 9 (WTK1): 3; 9 (U-937): 3. • RDM4: lymphoma, mouse AKR • TK6: human lymphoblastoid line • NH32: TK6 variant, not expressing p53 (“p53 knock-out”) • WTK1: other TK6 variant, expressing a p53 mutated gene • MOLT-4: human T lymphoblastic leukemia • U-937: human promonocyte leukemia Proliferation Test for the RDM4 Line with each Compound
# RDM4 [2] = assay: Apoptosis by marking with Annexin-V on RDM4; format: cell-based, mouse
# Procedure: Cell death is measured by a first specific marking of the apoptosis. The externalisation of the anionic phospholipids, normally located on the inner layer of the plasmic membrane, is one of the precocious markers of apoptosis (Martin et al, 1996). Annexin-V is a protein which fixes specifically onto the phosphatidylserines in the presence of calcium. When Annexin-V is coupled to a fluorochrome, it makes it possible to quantify the apoptotic cells by flux cytometry.
# The control cells are treated with the equivalent volume of solvent (ethanol). […] After 72 hrs, the apoptosis rate is still as low as that of the control cells. On the other hand, with treatment at 45 μM, this rate already reaches 70% at 24 hrs and exceeds 99% after 48 hrs—a sign of significant apoptosis induction.
# U-937 = assay: Proliferation test (UptiBlue) on U-937; format: cell-based, human; settings: 72 hours, unit inferred
# Procedure: as §2, §3, §5
# [3] = system: A172, HS683, N2A, and SH5Y; assay: MTT test on glioblastoma and neuroblastoma lines; format: cell-based, human; settings: 48 hrs treatment; compared with cisplatinum
# Procedure: FIG. 1: The A172 cells were cultivated on plates with 96 wells in DMEM medium with 10% calf serum. At 30% confluence, the cells were treated for 48 hrs with cisplatinum or the various compounds derived from ruthenium in the concentrations indicated (1, 5, 15, 50 μM). The quantity of cells present in the wells was evaluated by an MTT (MTT, Sigma) test of which the products of the reaction are quantified with an Elisa plate reader (Metertech, USA) (490-650 nm). The results obtained were related to the values of the control condition (100% viability). The graphs show an average of 8 points with the typical spacings over one experiment representative of 4 carried out. The thick black line indicates the IC50 for each graph.
# TABLE 2: a summary of the results obtained on various cell lines and primary glial cultures. The experiments were carried out under the same conditions as those described for the A172 cells. Each IC50 is an indicative value obtained over 4 independent experiments.
# as §4
Structure (SMILES),IC50 (RDM4 line) [µM],IC50 (NH32) [µM],nuclear condensation and fragmentation (A172 glioblastoma cells),"proteic levels of the active fragment of caspase 3 (Western blot) (A172 glioblastoma cells; cisplatinum 15 μM, CDR6 15 μM, CDR9 15 μM)",IC50 (MOLT-4) [µM],"cell cycle distribution (propidium iodure) (RDM4 [1]; 15 μM, first two days)","hypodiploid particles (sub-G0 DNA content) (RDM4 [1]; 45 μM, 72 hrs) [%]",IC50 (WTK1) [µM],"apoptosis rate (Annexin-V) (RDM4 [2]; 15 μM, up to 72 hrs)","apoptosis rate (Annexin-V) (RDM4 [2]; 45 μM, 24 hrs) [%]",IC50 (U-937) [µM],reduction of the number of tumoral cells (MTT) [3]
"CC#N.CC#N.CC#N.CP(C)c1ccccc1.F[P-](F)(F)(F)(F)F.[Ru+][c]1ccccc1-c1ccccn1 [Compound 9, [Ru (C6H4-2-C5H4N) (PMe2Ph) (NCMe)3]PF6]",12,3,induce nuclear condensation and fragmentation characteristic of apoptosis,increasing the proteic levels of the active fragment of caspase 3,3.8,accumulation in the G0/G1 phase,60,3,does not shown any effect,70,3,at a concentration similar to or lower than that of cisplatinum
"CC#N.CC#N.Cc1ccnc(-c2cc(C)ccn2)c1.F[P-](F)(F)(F)(F)F.[Ru+][c]1ccccc1-c1ccccn1 [Compound 12, [Ru(C6H4-2-C5H4N)(4,4′-dimethyl-2,2′-bipyridine)(NCMe)2]PF6]",9,–,induce nuclear condensation and fragmentation characteristic of apoptosis,–,–,–,–,–,–,–,–,at a concentration similar to or lower than that of cisplatinum
"CC#N.CC#N.CN(C)Cc1cccc[c]1[Ru+].F[P-](F)(F)(F)(F)F.c1ccc(-c2ccccn2)nc1 [Compound 13, [Ru-2-(CH2NMe2)—C6H4-(bipy) (NCMe)2]PF6]",11,–,–,–,–,–,–,–,–,–,–,–

# Source: patent US8193175B2, “Ruthenium complexes for treating cancers” (Universite de Strasbourg, priority 2004, dated 2012)
